Laboratory results from paper PMC8151276, “An Integrated Approach toward NanoBRET Tracers for Analysis of GPCR Ligand Engagement” (Molecules, 2021).

Tests used:
[1] = biological target: T1, FZD9 (Homo sapiens, UniProt O00144); experiment: NanoBRET screen HiBiT-FZD9 in HEK293; assay type: binding
T1 construct: purchased Promega (in-house HiBiT-GPCR construct library, NanoBRET)
T1 sequence (O00144 23-591): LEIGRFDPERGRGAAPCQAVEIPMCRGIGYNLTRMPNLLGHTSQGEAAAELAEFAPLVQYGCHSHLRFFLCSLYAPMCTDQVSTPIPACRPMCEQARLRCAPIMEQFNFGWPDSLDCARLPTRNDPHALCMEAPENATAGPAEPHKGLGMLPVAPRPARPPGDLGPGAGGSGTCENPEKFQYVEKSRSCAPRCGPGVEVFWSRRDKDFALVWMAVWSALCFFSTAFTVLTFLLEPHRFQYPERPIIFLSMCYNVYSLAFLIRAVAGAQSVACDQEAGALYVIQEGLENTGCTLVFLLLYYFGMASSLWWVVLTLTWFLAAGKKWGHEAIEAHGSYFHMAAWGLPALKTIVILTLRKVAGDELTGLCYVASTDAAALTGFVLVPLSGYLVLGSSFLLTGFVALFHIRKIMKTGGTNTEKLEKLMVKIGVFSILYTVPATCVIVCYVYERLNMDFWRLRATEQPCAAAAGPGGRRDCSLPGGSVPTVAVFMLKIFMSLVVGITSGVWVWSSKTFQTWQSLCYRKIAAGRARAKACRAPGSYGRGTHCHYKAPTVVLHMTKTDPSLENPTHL
Method: (§1) Each tracer candidate was screened across the entire library of HiBiT-GPCR constructs using NanoBRET as the detection modality. As depicted in Figure 4A, the specificity of interactions was evaluated through decrease in BRET due to competitive displacement of a bound tracer by excess parental compound. Each tracer was analyzed for binding to each HiBiT-GPCR fusion in the absence and in the presence of competing parental compound. Briefly, HEK293 cells were transfected with HiBiT-GPCR constructs diluted into promoterless DNA to reduce expression and maximize translocation to the cell surface. Each tracer candidate was then screened at concentrations of 1 μM and 0.1 μM across cells expressing these fusions. Cells were treated for 1.5 h with tracer either alone or in the presence of 20 μM competing parental compound (i.e., control). BRET was measured upon addition of purified LgBiT and subsequent complementation with HiBiT genetically fused to a GPCR. The specificity of interactions was assessed through a decrease in BRET signal due to competitive displacement of the bound tracer. To further gauge the robustness of these interactions, the fold response over the control (i.e., BRETtracer/BRETcontrol) was calculated. We chose a 1.5-fold response, which translates to ≥7-fold signal over noise as the minimal threshold required to score an interaction as positive. […]. Below we highlight the screening results obtained for our exemplary fluorescent tracers based on Clozapine, Amitriptyline and AZD1283.
(§2) HiBiT-GPCR DNA constructs were diluted in 10 mM Tris pH 8 to a final concentration of 0.01 μg/μL, arrayed in 96-well plates and stored at −20 °C. For transfection, HEK293 cells were suspended in Opti-MEM (without phenol red) supplemented with 2% fetal bovine serum (Seradigm) and 100 units/mL penicillin–streptomycin (Gibco) at a final concentration of 220,000 cells/mL and dispensed into white 96-well plates at 90 μL/well. Subsequent transfections and screens were carried using an Agilent Bravo Automated Liquid Handling Platform. First, the 96-well HiBiT DNA arrays were diluted 25-fold in Opti-MEM (without serum or phenol red) to a final concentration of 0.0004 μg/μL and 20 μL of the diluted DNAs were transferred into new 96-well plates. Next, promoterless carrier DNA (1 μg/μL) was diluted 25-fold (0.04 μg/μL) and then dispensed into the diluted arrays at 20 μL/well. Following brief mixing, Viafect transfection reagent (Promega) diluted 16-fold into Opti-MEM was dispensed into the plates at 40 μL/well. After mixing by pipetting, plates were incubated for 10 min on the pipetting station deck. The DNA-transfection reagent complexes were then added to plates containing cells. To facilitate the screen, 10 μL of DNA-transfection reagent complexes were added in duplicates to the top 4 and bottom 4 rows, resulting in two identical 48-well arrays per plate. Plates with transfected cells were incubated for 18–20 h at 37 °C/5% CO2. A screen of each tracer across the entire library using two different concentrations requires duplicate plates of transfected cells. Depending on the number of tracers being screened, transfections can be scaled up using the same ratios. The next day, for each tracer, four 20× screening solutions in tracer dilution buffer (Promega) were prepared: two duplicates at final concentration of 20 μM and two duplicates at a final concentration of 2 μM. A competing unmodified compound was added to one of each duplicate at a final concentration of 400 μM. The four resulting solutions were diluted 4-fold in Opti-MEM without serum or phenol red to generate 5× solutions (5 µM and 0.5 µM tracer +/− 100 μM competing compound). To screen the library, a BioTek MultiFlo FX liquid dispenser was used to dispense 22.5 µL of tracer solution to the top 4 rows and 22.5 µL tracer + competing compound solution to the 4 bottom rows. Plates were briefly mixed on an orbital shaker and incubated for 1.5 h at room temperature. […]

[2] = biological target: T2, PDGFRB (Homo sapiens, UniProt P09619); experiment: NanoBRET screen HiBiT-PDGFRB in HEK293; assay type: binding
T2 construct: purchased Promega (in-house HiBiT-GPCR construct library, NanoBRET)
Method: as §1, §2

[3] = tracer at 1μM, listed as amitriptyline-b-2-NB590

T2 sequence (P09619 33-1106): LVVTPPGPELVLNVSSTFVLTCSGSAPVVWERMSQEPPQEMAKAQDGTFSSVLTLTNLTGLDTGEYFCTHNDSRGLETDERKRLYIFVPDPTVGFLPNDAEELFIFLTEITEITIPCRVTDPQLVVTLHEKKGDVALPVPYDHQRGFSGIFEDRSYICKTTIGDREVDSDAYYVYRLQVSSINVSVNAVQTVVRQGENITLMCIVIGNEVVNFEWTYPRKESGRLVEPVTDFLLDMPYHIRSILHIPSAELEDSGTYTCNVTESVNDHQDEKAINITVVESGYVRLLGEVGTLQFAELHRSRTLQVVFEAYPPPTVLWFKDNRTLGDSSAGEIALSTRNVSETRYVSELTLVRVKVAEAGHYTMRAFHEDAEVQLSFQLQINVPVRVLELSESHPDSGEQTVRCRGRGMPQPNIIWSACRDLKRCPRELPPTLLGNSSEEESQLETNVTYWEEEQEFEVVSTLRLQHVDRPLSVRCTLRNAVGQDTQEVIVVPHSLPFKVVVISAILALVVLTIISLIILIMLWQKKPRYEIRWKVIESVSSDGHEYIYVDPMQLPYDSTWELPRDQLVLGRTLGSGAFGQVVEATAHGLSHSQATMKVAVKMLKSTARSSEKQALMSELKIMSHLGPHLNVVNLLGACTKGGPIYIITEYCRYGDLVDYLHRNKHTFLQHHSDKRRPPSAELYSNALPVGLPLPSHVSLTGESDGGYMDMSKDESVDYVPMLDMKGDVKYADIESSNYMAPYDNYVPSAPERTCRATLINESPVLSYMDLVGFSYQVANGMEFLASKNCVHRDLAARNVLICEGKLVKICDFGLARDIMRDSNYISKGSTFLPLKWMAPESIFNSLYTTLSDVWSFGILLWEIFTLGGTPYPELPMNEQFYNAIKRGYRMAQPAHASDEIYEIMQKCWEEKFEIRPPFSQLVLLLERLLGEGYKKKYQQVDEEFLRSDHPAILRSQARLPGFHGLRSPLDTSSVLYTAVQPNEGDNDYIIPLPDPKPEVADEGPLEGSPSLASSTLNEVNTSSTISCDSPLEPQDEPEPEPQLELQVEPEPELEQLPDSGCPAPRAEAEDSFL

| SMILES | NanoBRET Fold Response ([1]; FZD9, tracer 0.1μM) | NanoBRET Fold Response ([1]; FZD9, tracer 1μM) | NanoBRET Fold Response ([2]; PDGFRB, tracer 0.1μM) | NanoBRET Fold Response ([2]; PDGFRB, tracer 1μM) | other results |
| --- | --- | --- | --- | --- | --- |
| Cc1nc2n(c(=O)c1CCN1CCC(c3noc4cc(F)ccc34)CC1)CCCC2OC(=O)NCCOCCOCCOCCOCCNC(=O)CCc1ccc2n1[B-](F)(F)[N+]1=C(c3ccc[nH]3)C=CC1=C2 (stereo not drawn) [Risperidone-2-NB590] | 1.00 | 0.99 | 1.09 | 0.90 |  |
| CCOC(=O)c1cc(C#N)c(N2CCC(C(=O)NS(=O)(=O)Cc3ccccc3/C=C/C(=O)NCCNC(=O)CCc3ccc4n3[B-](F)(F)[N+]3=C(c5ccc[nH]5)C=CC3=C4)CC2)nc1C [AZD1283-1-NB590] |  |  |  |  | NanoBRET Fold Response ([1]; FZD9, 0.1μM): 1.05; NanoBRET Fold Response ([1]; FZD9, 1μM): 1.02; NanoBRET Fold Response ([2]; PDGFRB, 0.1μM): 1.10; NanoBRET Fold Response ([2]; PDGFRB, 1μM): 1.16 |
| Cc1cc2c(s1)Nc1ccccc1N=C2N1CCN(CCCNC(=O)CCOCCOCCOCCOCCNC(=O)CCc2ccc3n2[B-](F)(F)[N+]2=C(c4ccc[nH]4)C=CC2=C3)CC1 [Olanzapine-a-2-NB590] | 0.95 | 0.95 | 0.98 | 1.05 |  |
| COc1ccccc1N1CCN(CCCCN2C(=O)c3ccc(CNC(=O)CCOCCNC(=O)c4ccc(CNC(=O)CCc5ccc6n5[B-](F)(F)[N+]5=C(c7ccc[nH]7)C=CC5=C6)cc4)cc3C2=O)CC1 [NAN-190-3-NB590] | 0.94 | 1.18 | 0.93 | 1.07 |  |
| CC(C)N(CC[C@H](c1ccccc1)c1cc(CCNC(=O)CCOCCOCCOCCOCCNC(=O)CCc2ccc3n2[B-](F)(F)[N+]2=C(c4ccc[nH]4)C=CC2=C3)ccc1O)C(C)C [Tolterodine-2-NB590] | 0.96 | 0.85 | 1.22 | 0.94 |  |
| CN(C)CCC=C1c2ccccc2CCc2ccc(C(=O)NCCNC(=O)CCOCCOCCOCCOCCNC(=O)CCc3ccc4n3[B-](F)(F)[N+]3=C(c5ccc[nH]5)C=CC3=C4)cc21 [Amitriptyline-b-2-NB590] |  |  |  |  | NanoBRET Fold Response ([1]; tracer at 0.1μM, listed as amitriptyline-b-2-NB590): 1.04; NanoBRET Fold Response [1, 3]: 1.11; NanoBRET Fold Response ([2]; tracer at 0.1μM): 0.97; NanoBRET Fold Response [2, 3]: 0.99 |
| O=C(CCOCCOCCOCCOCCNC(=O)CCc1ccc2n1[B-](F)(F)[N+]1=C(c3ccc[nH]3)C=CC1=C2)NCCCN1CCN(C2=Nc3ccccc3Oc3ccc(Cl)cc32)CC1 [Loxapine-a-2-NB590] | 1.00 | 1.07 | 1.12 | 1.00 |  |
| CN(C)CCC=C1c2ccccc2CCc2ccc(C(=O)NCCNC(=O)CCOCCOCCOCCOCCNC(=O)CCc3ccc4n3[B-](F)(F)[N+]3=C(c5ccc[nH]5)C=CC3=C4)cc21 [Amitriptyline-a-2-NB590] |  |  |  |  | NanoBRET Fold Response ([1]; tracer at 0.1μM): 0.96; NanoBRET Fold Response ([1]; tracer at 1μM): 1.07; NanoBRET Fold Response ([2]; tracer at 0.1μM): 1.17; NanoBRET Fold Response ([2]; tracer at 1μM): 1.06 |
| O=C(CCc1ccc2n1[B-](F)(F)[N+]1=C(c3ccc[nH]3)C=CC1=C2)NCCOCCOCCNC(=O)OCCOCCN1CCN(C2=Nc3ccccc3Sc3ccccc32)CC1 [Quetiapine-a-2-NB590] | 0.84 | 0.78 | 1.13 | 1.03 |  |
| COc1ccccc1N1CCN(CCCCN2C(=O)c3ccc(CNC(=O)CCOCCOCCOCCOCCNC(=O)CCc4ccc5n4[B-](F)(F)[N+]4=C(c6ccc[nH]6)C=CC4=C5)cc3C2=O)CC1 [NAN-190-2-NB590] | 0.96 | 1.06 | 0.99 | 1.00 |  |
| CN1CCN(C2=Nc3cc(Cl)ccc3N(CC(=O)NCCOCCOCCOCCOCCNC(=O)CCc3ccc4n3[B-](F)(F)[N+]3=C(c5ccc[nH]5)C=CC3=C4)c3ccccc32)CC1 [Clozapine-c-2-NB590] |  |  |  |  | NanoBRET Fold Response ([1]; FZD9, 0.1μM tracer): 0.95; NanoBRET Fold Response ([1]; FZD9, 1μM tracer): 0.95; NanoBRET Fold Response ([2]; PDGFRB, 0.1μM tracer): 1.00; NanoBRET Fold Response ([2]; PDGFRB, 1μM tracer): 0.87 |
| COc1ccc2[nH]c(-c3ccc(CNC(=O)CCOCCOCCOCCOCCNC(=O)CCc4ccc5n4[B-](F)(F)[N+]4=C(c6ccc[nH]6)C=CC4=C5)cc3)c(CCNC(C)=O)c2n1 [AzomelatoninICO9-2-NB590] |  |  |  |  | NanoBRET Fold Response ([1]; 0.1μM tracer): 1.30; NanoBRET Fold Response ([1]; 1μM tracer): 0.94; NanoBRET Fold Response ([2]; 0.1μM tracer): 0.80; NanoBRET Fold Response ([2]; 1μM tracer): 1.04 |
| O=C(CCOCCOCCOCCOCCNC(=O)CCc1ccc2n1[B-](F)(F)[N+]1=C(c3ccc[nH]3)C=CC1=C2)NCCCN1CCN(C2=Nc3cc(Cl)ccc3Nc3ccccc32)CC1 [Clozapine-a-2-NB590] |  |  |  |  | NanoBRET Fold Response ([1]; FZD9, 0.1μM tracer): 1.00; NanoBRET Fold Response ([1]; FZD9, 1μM tracer): 1.39; NanoBRET Fold Response ([2]; PDGFRB, 0.1μM tracer): 1.09; NanoBRET Fold Response ([2]; PDGFRB, 1μM tracer): 0.88 |
| CCCn1c(=O)c2[nH]c(-c3ccc(OCC(=O)NCCNC(=O)CCOCCNC(=O)c4ccc(CNC(=O)CCc5ccc6n5[B-](F)(F)[N+]5=C(c7ccc[nH]7)C=CC5=C6)cc4)cc3)nc2n(CCC)c1=O [XAC-3-NB590] | 1.00 | 1.07 | 0.76 | 0.79 |  |
| O=C(CCc1ccc2n1[B-](F)(F)[N+]1=C(c3ccc[nH]3)C=CC1=C2)NCc1ccc(C(=O)NCCOCCOCCNCC(O)COc2cccc3ccccc23)cc1 (stereo not drawn) [Propranolol-3-NB590] |  |  |  |  | NanoBRET Fold Response ([1]; FZD9, 0.1μM): 0.98; NanoBRET Fold Response ([1]; FZD9, 1μM): 1.09; NanoBRET Fold Response ([2]; PDGFRB, 0.1μM): 1.05; NanoBRET Fold Response ([2]; PDGFRB, 1μM): 0.98 |
| O=C(CCc1ccc2n1[B-](F)(F)[N+]1=C(c3ccc[nH]3)C=CC1=C2)NCc1ccc(C(=O)NCCOCCC(=O)N[C@@H]2CC[C@@]3(O)[C@H]4Cc5ccc(O)c6c5[C@@]3(CCN4CC3CC3)[C@H]2O6)cc1 [Naltrexone-3-NB590] | 1.17 | 0.96 | 0.24 | 0.95 |  |
| CN(CCC=C1c2ccccc2CCc2ccccc21)C(=O)CCOCCOCCOCCOCCNC(=O)CCc1ccc2n1[B-](F)(F)[N+]1=C(c3ccc[nH]3)C=CC1=C2 [Amitriptyline-e-2-NB590] |  |  |  |  | NanoBRET Fold Response ([2]; tracer at 1μM): 1.04 |
| N#CN=C(NCCCOc1cccc(CN2CCCCC2)c1)NCCNC(=O)CCOCCOCCOCCOCCNC(=O)CCc1ccc2n1[B-](F)(F)[N+]1=C(c3ccc[nH]3)C=CC1=C2 [Aminopotentidine-2-NB590] | 1.08 | 1.01 | 0.90 | 1.01 |  |
